From patent US5084453A, “1-carboxy-1-vinyloxyimino aminothiazole cephalosporin derivatives” (priority 1988, dated 1992)
Like-named read-outs stand apart in the source and are kept apart here.

Assays:
Test in all cases: in vitro antibacterial activity, agar plate dilution method
Type in all cases: cell-based
A. calcoaceticus No. 4 = details: Acinetobacter calcoaceticus
Procedure: (§1) Now, the in vitro antibacterial activities of the compounds of the present invention against various microorganisms, were measured by the following agar plate dilution method.
(§2) One platinum loopfull of each test microorganism incubated overnight in Mueller Hinton broth, was inoculated to Mueller Hinton agar (MH agaer). Such culture media containing various antibiotics in various concentrations were prepared. After incubation at 37° C. for 16 hours, the minimum inhibitory concentrations (MIC μg/ml) were measured.

E. cloacae 963 = details: Enterobacter cloacae, 963, 16 h
Procedure: as §1, §2

E. cloacae Nek 39* = details: Enterobacter cloacae
Procedure: as §1, §2

E. coli CSH(RE45)* = details: Escherichia coli; 10^6 CFU/ml; β-Lactamase-producing strain; 37° C., 16 hours; read-out: MIC
Procedure: as §1, §2

E. coli CSH2(RK1)* = details: Escherichia coli, 16 h
Procedure: as §1, §2

E. coli GN5482* = details: Escherichia coli, GN5482, 16 h
Procedure: as §1, §2

E. coli NIHJ JC2 = details: Escherichia coli, NIHJJC2; 10^6 CFU/ml; Mueller Hinton agar, 37° C., 16 hours; read-out: MIC
Procedure: as §1, §2

K. oxytoca GN10650* = details: Klebsiella oxytoca, GN10650, 16 h
Procedure: as §1, §2

K. pneumoniae No. 42* = details: Klebsiella pneumoniae
Procedure: as §1, §2

K. pneumoniae PC1-602 = details: Klebsiella pneumoniae
Procedure: as §1, §2

M. morganii GN5407* = details: Morganella morganii
Procedure: as §1, §2

P. vulgaris HX-19 = details: Proteus vulgaris, HX19; 10^6 CFU/ml; Mueller Hinton agar, 37° C., 16 hours; read-out: MIC
Procedure: as §1, §2

P. vulgaris No. 33* = details: Proteus vulgaris
Procedure: as §1, §2

Ps. aeruginosa AK 109 = details: Pseudomonas aeruginosa
Procedure: as §1, §2

Ps. aeruginosa AKR17 = details: Pseudomonas aeruginosa
Procedure: as §1, §2

Ps. aeruginosa IFO3445 = details: Pseudomonas aeruginosa
Procedure: as §1, §2

Ps. cepacia 23 = test system: Ps. cepacia 23
Procedure: as §1, §2

S. aureus 209P NIHJ-JC1 = details: Staphylococcus aureus
Procedure: as §1, §2

S. marcescens IAM 1184 = details: Serratia marcescens
Procedure: as §1, §2

S. marcescens No. 16-2* = details: Serratia marcescens
Procedure: as §1, §2

[1] = NO.4, 10^6 CFU/ml, Mueller Hinton agar, 37° C., 16 hours, read-out: MIC
[2] = 10^6 CFU/ml, β-Lactamase-producing strain, 37° C., 16 hours, read-out: MIC
[3] = PC1602, 10^6 CFU/ml, Mueller Hinton agar, 37° C., 16 hours, read-out: MIC
[4] = GN5407, 10^6 CFU/ml, β-Lactamase-producing strain, 37° C., 16 hours, read-out: MIC
[5] = AKR17, 10^6 CFU/ml, Mueller Hinton agar, 37° C., 16 hours, read-out: MIC
[6] = IAM1184, 10^6 CFU/ml, Mueller Hinton agar, 37° C., 16 hours, read-out: MIC
[7] = Burkholderia cepacia, 23, 10^6 CFU/ml, Mueller Hinton agar, 37° C., 16 hours, read-out: MIC
[8] = 10^6 CFU/ml, Mueller Hinton agar, 37° C., 16 hours, read-out: MIC
[9] = AK109, 10^6 CFU/ml, Mueller Hinton agar, 37° C., 16 hours, read-out: MIC

| Compound | MIC (A. calcoaceticus No. 4; [1]) | MIC (E. cloacae 963) | MIC (E. cloacae Nek 39*; 16 h) | MIC (E. coli CSH(RE45)*) | MIC (E. coli CSH2(RK1)*) | MIC (E. coli GN5482*) | MIC (E. coli NIHJ JC2) | MIC (K. oxytoca GN10650*) | MIC (K. pneumoniae PC1-602; [3]) | MIC (P. vulgaris HX-19) | MIC (P. vulgaris No. 33*; 16 h) | MIC (Ps. aeruginosa AK 109; AK109, 16 h) | MIC (Ps. aeruginosa AKR17; [5]) | MIC (Ps. aeruginosa IFO3445; IFO3445, 16 h) | MIC (S. marcescens IAM 1184; [6]) | MIC (S. marcescens No. 16-2*; 16 h) | MIC (K. pneumoniae No. 42*; 16 h) | MIC (M. morganii GN5407*; GN5407, 16 h) | MIC (Ps. cepacia 23; [7]) | MIC (S. aureus 209P NIHJ-JC1; [8]) | other results |
| --- | --- | --- | --- | --- | --- | --- | --- | --- | --- | --- | --- | --- | --- | --- | --- | --- | --- | --- | --- | --- | --- |
| C=C(O/N=C(\C(=O)N[C@@H]1C(=O)N2C(C(=O)O)=C(CSc3ncc(-c4ccc(O)c(O)c4)o3)CS[C@H]12)c1csc(N)n1)C(=O)O [Example 14, disodium 7β-[2-(2-aminothiazol-4-yl)-2-(1-carboxylato-1-vinyloxyimino)acetamido]-3-[5-(3,4-dihydroxyphenyl)oxazol-2-yl]thiomethyl-3-cephem-4-carboxylate (syn-isomer)] | 0.2 µg/mL | 0.39 µg/mL | 0.1 µg/mL | 0.025 µg/mL | 0.0125 µg/mL | 1.56 µg/mL | 0.78 µg/mL | 0.1 µg/mL | < 0.006 µg/mL | < 0.006 µg/mL | 0.025 µg/mL | 0.78 µg/mL | 3.12 µg/mL | 0.78 µg/mL | 0.05 µg/mL | 0.39 µg/mL |  |  |  |  | MIC (K. pneumoniae No. 42*; [2]): 0.05 µg/mL; MIC (M. morganii GN5407*; [4]): 0.05 µg/mL; MIC (Ps. cepacia 23; Burkholderia cepacia, 23, 16 h): 0.0125 µg/mL; MIC (S. aureus 209P NIHJ-JC1; 16 h): 6.25 µg/mL |
| C=C(O/N=C(\C(=O)N[C@@H]1C(=O)N2C(C(=O)O)=C(CSc3nc(-c4ccc(OC(C)=O)c(OC(C)=O)c4)c(CC(=O)O)s3)CS[C@H]12)c1csc(N)n1)C(=O)O [Example 16, trisodium 3-[4-(3,4-diacetoxyphenyl)-5-carboxylatomethylthiazol-2-yl]thiomethyl-7β-[2-(2-aminothiazol-4-yl)-2-(1-carboxylato-1-vinyloxyimino)acetamido]-3-cephem-4-carboxylate (syn-isomer)] |  | 0.39 µg/mL | 0.2 µg/mL | 1.56 µg/mL | 0.05 µg/mL | 0.78 µg/mL | 0.78 µg/mL | 0.1 µg/mL | < 0.006 µg/mL | < 0.006 µg/mL | 0.025 µg/mL | 0.78 µg/mL |  | 0.78 µg/mL |  | 0.78 µg/mL | 0.1 µg/mL | 0.05 µg/mL | < 0.006 µg/mL | 12.5 µg/mL | MIC (A. calcoaceticus No. 4; NO.4, 16 h): 0.2 µg/mL; MIC (Ps. aeruginosa AKR17; AKR17, 16 h): 1.56 µg/mL; MIC (S. marcescens IAM 1184; IAM1184, 16 h): 0.05 µg/mL |
| C=C(O/N=C(\C(=O)N[C@@H]1C(=O)N2C(C(=O)O)=C(COC(C)=O)CS[C@H]12)c1csc(N)n1)C(=O)O [Example 17, disodium 7β-[2-(2-aminothiazol-4-yl)-2-(1-carboxylato-1-vinyloxyimino)acetamido]cephalosporanate (syn-isomer)] | 25 µg/mL | 0.1 µg/mL |  | 0.1 µg/mL | 0.025 µg/mL | 1.56 µg/mL | 0.1 µg/mL | 0.05 µg/mL | 0.0125 µg/mL | < 0.006 µg/mL | 0.1 µg/mL | 6.25 µg/mL | > 100 µg/mL | 6.25 µg/mL | 0.0125 µg/mL |  | 0.2 µg/mL | 0.025 µg/mL |  | 12.5 µg/mL | MIC (E. cloacae Nek 39*; [2]): 3.12 µg/mL; MIC (Ps. cepacia 23; Burkholderia cepacia, 23, 16 h): 1.56 µg/mL; MIC (S. marcescens No. 16-2*; [2]): 3.12 µg/mL |
| C=C(O/N=C(\C(=O)N[C@@H]1C(=O)N2C(C(=O)O)=C(CSc3nnc(C)s3)CS[C@H]12)c1csc(N)n1)C(=O)O [Example 18, disodium 7β-[2-(2-aminothiazol-4-yl)-2-11-carboxylato-1-vinyloxyimino)acetamido]-3-(5-methyl-1,3,4-thiadiazol-2-yl)thiomethyl-3-cephem-4-carboxylate (syn-isomer)] | 100 µg/mL | 0.2 µg/mL | 0.78 µg/mL | 0.1 µg/mL | 0.025 µg/mL | 0.39 µg/mL | 0.2 µg/mL | 0.2 µg/mL |  | < 0.006 µg/mL |  |  | > 100 µg/mL |  |  |  | 0.39 µg/mL |  | 3.12 µg/mL | 3.12 µg/mL | MIC (K. pneumoniae PC1-602; PC1602, 16 h): 0.025 µg/mL; MIC (M. morganii GN5407*; [4]): 0.0125 µg/mL; MIC (P. vulgaris No. 33*; [2]): < 0.006 µg/mL; MIC (Ps. aeruginosa AK 109; [9]): 12.5 µg/mL; MIC (Ps. aeruginosa IFO3445; IFO3445, 10^6 CFU/ml, Mueller Hinton agar, 37° C., 16 hours, read-out: MIC): 12.5 µg/mL; MIC (S. marcescens IAM 1184; IAM1184, 16 h): 0.025 µg/mL; MIC (S. marcescens No. 16-2*; [2]): 3.12 µg/mL |
| C=C(O/N=C(\C(=O)N[C@@H]1C(=O)N2C(C(=O)O)=C(CSc3nnnn3C)CS[C@H]12)c1csc(N)n1)C(=O)O [Example 19, disodium 7β-[2-(2-aminothiazol-4-yl)-2-(1-carboxylato-1-vinyloxyimino)acetamido]-3-(1-methyl-1H-tetrazol-5-yl)thiomethyl-3-cephem-4-carboxylate (syn-isomer)] | 100 µg/mL | 0.1 µg/mL | 0.78 µg/mL | 0.1 µg/mL | 0.025 µg/mL | 0.39 µg/mL | 0.05 µg/mL | 0.05 µg/mL | 0.0125 µg/mL | < 0.006 µg/mL |  | 6.25 µg/mL | > 100 µg/mL | 6.25 µg/mL | < 0.006 µg/mL | 1.56 µg/mL | 0.2 µg/mL | 0.025 µg/mL | 3.12 µg/mL |  | MIC (P. vulgaris No. 33*; [2]): < 0.006 µg/mL; MIC (S. aureus 209P NIHJ-JC1; 16 h): 6.25 µg/mL |
| C=C(O/N=C(\C(=O)N[C@@H]1C(=O)N2C(C(=O)O)=C(CSc3nnnn3CC(=O)O)CS[C@H]12)c1csc(N)n1)C(=O)O [Example 20, trisodium 7β-[2-(2-aminothiazol-4-yl)-2-(1-carboxylato-1-vinyloxyimino)acetamido]-3-(1-carboxylatomethyl-1H-tetrazol-5-yl)thiomethyl-3-cephem-4-carboxylate (syn-isomer)] | 100 µg/mL | 0.39 µg/mL |  | 0.78 µg/mL | 0.2 µg/mL | 1.56 µg/mL | 0.39 µg/mL | 0.39 µg/mL |  | < 0.006 µg/mL |  |  | > 100 µg/mL | 6.25 µg/mL |  |  | 0.78 µg/mL | 0.05 µg/mL | 3.12 µg/mL | 25 µg/mL | MIC (E. cloacae Nek 39*; [2]): 3.12 µg/mL; MIC (K. pneumoniae PC1-602; PC1602, 16 h): 0.1 µg/mL; MIC (P. vulgaris No. 33*; [2]): < 0.006 µg/mL; MIC (Ps. aeruginosa AK 109; [9]): 12.5 µg/mL; MIC (S. marcescens IAM 1184; IAM1184, 16 h): 0.05 µg/mL; MIC (S. marcescens No. 16-2*; [2]): 3.12 µg/mL |
